Experimental data from PubChem BioAssay (NCI).
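Cultured in 96-well plates, cells were exposed to test compound for 48 hours across five concentrations. Here, GI50 denotes the concentration required for 50% inhibition of growth. The concentration for full growth arrest is given as TGI.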

Assays:
Assay in all cases: inhibition of tumour cell growth, NCI panel, 48 h
BT-549 breast = test system: BT-549 breast
SK-MEL-5 melanoma = test system: SK-MEL-5 melanoma
SF-539 CNS = test system: SF-539 CNS
UACC-62 melanoma = test system: UACC-62 melanoma
HCC-2998 colon = test system: HCC-2998 colon
OVCAR-4 ovarian = test system: OVCAR-4 ovarian
UACC-257 melanoma = test system: UACC-257 melanoma
NCI-H460 lung = test system: NCI-H460 lung
K-562 leukemia = test system: K-562 leukemia
SN12C renal = test system: SN12C renal
A498 renal = test system: A498 renal
HS 578T breast = test system: HS 578T breast
ACHN renal = test system: ACHN renal
CAKI-1 renal = test system: CAKI-1 renal
RXF 393 renal = test system: RXF 393 renal
SF-295 CNS = test system: SF-295 CNS
TK-10 renal = test system: TK-10 renal
NCI/ADR-RES ovarian = test system: NCI/ADR-RES ovarian
LOX IMVI melanoma = test system: LOX IMVI melanoma
DU-145 prostate = test system: DU-145 prostate
SW-620 colon = test system: SW-620 colon
EKVX NSCLC = test system: EKVX NSCLC
HCT-15 colon = test system: HCT-15 colon
OVCAR-8 ovarian = test system: OVCAR-8 ovarian
HL-60(TB) leukemia = test system: HL-60(TB) leukemia
NCI-H23 lung = test system: NCI-H23 lung
HOP-62 NSCLC = test system: HOP-62 NSCLC
786-0 renal = test system: 786-0 renal
MCF7 breast = test system: MCF7 breast
KM12 colon = test system: KM12 colon
MDA-MB-231 breast = test system: MDA-MB-231 breast
SF-268 CNS = test system: SF-268 CNS
MDA-MB-435 = test system: MDA-MB-435
A549 NSCLC = test system: A549 NSCLC
MOLT-4 leukemia = test system: MOLT-4 leukemia
SR leukemia = test system: SR leukemia
NCI-H226 lung = test system: NCI-H226 lung
U251 CNS = test system: U251 CNS
RPMI-8226 leukemia = test system: RPMI-8226 leukemia
COLO 205 colon = test system: COLO 205 colon
UO-31 renal = test system: UO-31 renal
CCRF-CEM leukemia = test system: CCRF-CEM leukemia
SK-OV-3 ovarian = test system: SK-OV-3 ovarian
SNB-75 CNS = test system: SNB-75 CNS
SNB-19 CNS = test system: SNB-19 CNS
PC-3 prostate = test system: PC-3 prostate
SK-MEL-2 melanoma = test system: SK-MEL-2 melanoma
HT29 colon = test system: HT29 colon
MALME-3M melanoma = test system: MALME-3M melanoma
HOP-92 NSCLC = test system: HOP-92 NSCLC
OVCAR-5 ovarian = test system: OVCAR-5 ovarian
OVCAR-3 ovarian = test system: OVCAR-3 ovarian
T-47D breast = test system: T-47D breast
HCT-116 colon = test system: HCT-116 colon
SK-MEL-28 melanoma = test system: SK-MEL-28 melanoma

Compound `N#Cc1nc2c(S(=O)(=O)c3ccc(Cl)cc3)c(N)n(CCCN3CCOCC3)c2nc1C#N` has a GI50 (BT-549 breast) of 5.75 µM, a TGI (BT-549 breast) of 42 µM and a GI50 (SK-MEL-5 melanoma) of 6.67 µM. The TGI (SK-MEL-5 melanoma) was 20 µM, the GI50 (SF-539 CNS) was 2.31 µM and the TGI (SF-539 CNS) was 7.9 µM. It also gave a GI50 (UACC-62 melanoma) of 10.8 µM, a TGI (UACC-62 melanoma) of 31.1 µM and a GI50 (HCC-2998 colon) of 18 µM. The TGI (HCC-2998 colon) was 33.7 µM, the GI50 (OVCAR-4 ovarian) was 4.78 µM and the TGI (OVCAR-4 ovarian) was greater than 100 µM. For the same compound, the GI50 (UACC-257 melanoma) was 5.91 µM, the TGI (UACC-257 melanoma) was 22.7 µM and the GI50 (NCI-H460 lung) was 15.8 µM. It also gave a TGI (NCI-H460 lung) of 40.9 µM, a GI50 (K-562 leukemia) of 3 µM and a TGI (K-562 leukemia) of 31 µM. It also gave a GI50 (SN12C renal) of 10 µM, a TGI (SN12C renal) greater than 100 µM and a GI50 (A498 renal) of 2.6 µM. For the same compound, the TGI (A498 renal) was 14.6 µM, the GI50 (HS 578T breast) was 1.76 µM and the TGI (HS 578T breast) was 5.06 µM. It also gave a GI50 (ACHN renal) of 3.26 µM, a TGI (ACHN renal) of 15.3 µM and a GI50 (CAKI-1 renal) of 2.64 µM. The TGI (CAKI-1 renal) was 13.8 µM, the GI50 (RXF 393 renal) was 1.05 µM and the TGI (RXF 393 renal) was 5.21 µM. For the same compound, the GI50 (SF-295 CNS) was 17.6 µM, the TGI (SF-295 CNS) was 40.7 µM and the GI50 (TK-10 renal) was 10.1 µM. It also gave a TGI (TK-10 renal) of 23.6 µM, a GI50 (NCI/ADR-RES ovarian) of 33.2 µM and a TGI (NCI/ADR-RES ovarian) greater than 100 µM. For the same compound, the GI50 (LOX IMVI melanoma) was 4.76 µM, the TGI (LOX IMVI melanoma) was 17.3 µM and the GI50 (DU-145 prostate) was 3.79 µM. The TGI (DU-145 prostate) was 19.1 µM, the GI50 (SW-620 colon) was 2.99 µM and the TGI (SW-620 colon) was 14.1 µM. For the same compound, the GI50 (EKVX NSCLC) was 10.6 µM, the TGI (EKVX NSCLC) was 22.7 µM and the GI50 (HCT-15 colon) was 4.32 µM. It also gave a TGI (HCT-15 colon) of 27.1 µM, a GI50 (OVCAR-8 ovarian) of 4.07 µM and a TGI (OVCAR-8 ovarian) greater than 100 µM. For the same compound, the GI50 (HL-60(TB) leukemia) was 2.14 µM, the TGI (HL-60(TB) leukemia) was 6.55 µM and the GI50 (NCI-H23 lung) was 7.41 µM. It also gave a TGI (NCI-H23 lung) of 42.7 µM, a GI50 (HOP-62 NSCLC) of 15.2 µM and a TGI (HOP-62 NSCLC) of 51.3 µM. It also gave a GI50 (786-0 renal) of 17.3 µM, a TGI (786-0 renal) of 52.8 µM and a GI50 (MCF7 breast) of 3.76 µM. The TGI (MCF7 breast) was 16.5 µM, the GI50 (KM12 colon) was 12.3 µM and the TGI (KM12 colon) was 34.7 µM. For the same compound, the GI50 (MDA-MB-231 breast) was 3.58 µM, the TGI (MDA-MB-231 breast) was 14.4 µM and the GI50 (SF-268 CNS) was 5.19 µM. It also gave a TGI (SF-268 CNS) of 35.4 µM, a GI50 (MDA-MB-435) of 2.21 µM and a TGI (MDA-MB-435) of 5.82 µM. The GI50 (A549 NSCLC) was 19.5 µM, the TGI (A549 NSCLC) was 84.1 µM and the GI50 (MOLT-4 leukemia) was 2.63 µM. For the same compound, the TGI (MOLT-4 leukemia) was 9.64 µM, the GI50 (SR leukemia) was 3.58 µM and the TGI (SR leukemia) was 31 µM. It also gave a GI50 (NCI-H226 lung) of 2.87 µM, a TGI (NCI-H226 lung) of 13.5 µM and a GI50 (U251 CNS) of 10.8 µM. For the same compound, the TGI (U251 CNS) was 26.7 µM, the GI50 (RPMI-8226 leukemia) was 4.68 µM and the TGI (RPMI-8226 leukemia) was 41 µM. For the same compound, the GI50 (COLO 205 colon) was 3.45 µM, the TGI (COLO 205 colon) was 13.6 µM and the GI50 (UO-31 renal) was 4.58 µM. For the same compound, the TGI (UO-31 renal) was greater than 100 µM, the GI50 (CCRF-CEM leukemia) was 2.19 µM and the TGI (CCRF-CEM leukemia) was 6.28 µM. For the same compound, the GI50 (SK-OV-3 ovarian) was 27.1 µM, the TGI (SK-OV-3 ovarian) was greater than 100 µM and the GI50 (SNB-75 CNS) was 11.1 µM. It also gave a TGI (SNB-75 CNS) of 48.3 µM, a GI50 (SNB-19 CNS) of 28.2 µM and a TGI (SNB-19 CNS) greater than 100 µM. For the same compound, the GI50 (PC-3 prostate) was 26.7 µM, the TGI (PC-3 prostate) was 95.4 µM and the GI50 (SK-MEL-2 melanoma) was 6.77 µM. It also gave a TGI (SK-MEL-2 melanoma) of 24.5 µM, a GI50 (HT29 colon) of 5.96 µM and a TGI (HT29 colon) greater than 100 µM. It also gave a GI50 (MALME-3M melanoma) of 3.55 µM, a TGI (MALME-3M melanoma) of 18.1 µM and a GI50 (HOP-92 NSCLC) of 2.72 µM. It also gave a TGI (HOP-92 NSCLC) of 30.2 µM, a GI50 (OVCAR-5 ovarian) of 20.8 µM and a TGI (OVCAR-5 ovarian) of 54.9 µM. It also gave a GI50 (OVCAR-3 ovarian) of 3.29 µM, a TGI (OVCAR-3 ovarian) of 15.3 µM and a GI50 (T-47D breast) of 2.95 µM. It also gave a TGI (T-47D breast) of 16.6 µM, a GI50 (HCT-116 colon) of 3.11 µM and a TGI (HCT-116 colon) of 13.6 µM. The GI50 (SK-MEL-28 melanoma) was 4.11 µM and the TGI (SK-MEL-28 melanoma) was 15.7 µM.
